Results reported in the supplement of paper PMC11061612.

Assays:
Experiment in all cases: Bliss excess, mean over the matrix (fraction); higher = more synergy
8-MG-BA (Glioblastoma) = test system: 8-MG-BA (Glioblastoma)
Method in brief: (§1)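 After 24 hours at 37°C and 5% CO2 in 1536-well plates, cells in DMEM/F12 or RPMI plus 10% FBS received two-drug dose matrices for 72 hours. Viability came from CellTiter-Glo 2.0 luminescence and was scaled as inhibition, anchored at 0 by vehicle wells and at 1 by blank wells. Combination Emax is taken as the second-highest inhibition in the matrix, and Bliss excess as the observed combination effect less EA + EB − EA·EB, with EA and EB the single-agent effects.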

[1] = test system: A3-KAW (B-Cell Non-Hodgkin's Lymphoma)
Method in brief: as §1

[2] = test system: A549 (Lung Adenocarcinoma)
Method in brief: as §1

CAS-1 (Glioblastoma) = test system: CAS-1 (Glioblastoma)
Method in brief: as §1

[3] = test system: CCK-81 (Colorectal Carcinoma)
Method in brief: as §1

[4] = test system: ECC10 (Gastric Carcinoma)
Method in brief: as §1

FU97 (Gastric Carcinoma) = test system: FU97 (Gastric Carcinoma)
Method in brief: as §1

[5] = test system: HCC1954 (Breast Carcinoma)
Method in brief: as §1

Hs-445 (Non-Cancerous) = test system: Hs-445 (Non-Cancerous)
Method in brief: as §1

[6] = test system: JSC-1 (B-Cell Non-Hodgkin's Lymphoma)
Method in brief: as §1

[7] = test system: MDST8 (Colorectal Carcinoma)
Method in brief: as §1

[8] = test system: NCI-H1581 (Non-Small Cell Lung Carcinoma)
Method in brief: as §1

[9] = test system: NCI-H2141 (Small Cell Lung Carcinoma)
Method in brief: as §1

NCI-H2591 (Mesothelioma) = test system: NCI-H2591 (Mesothelioma)
Method in brief: as §1

NY (Osteosarcoma) = test system: NY (Osteosarcoma)
Method in brief: as §1

[10] = test system: SK-MG-1 (Low Grade Glioma)
Method in brief: as §1

[11] = test system: TT (Thyroid Gland Carcinoma)
Method in brief: as §1

[12] = test system: TT2609-C02 (Thyroid Gland Carcinoma)
Method in brief: as §1

U-2-OS (Osteosarcoma) = test system: U-2-OS (Osteosarcoma)
Method in brief: as §1

[13] = test system: VCaP (Prostate Carcinoma)
Method in brief: as §1

Compound	Bliss excess (8-MG-BA (Glioblastoma))	Bliss excess [1]	Bliss excess [2]	Bliss excess (CAS-1 (Glioblastoma))	Bliss excess [3]	Bliss excess [4]	Bliss excess (FU97 (Gastric Carcinoma))	Bliss excess [5]	Bliss excess (Hs-445 (Non-Cancerous))	Bliss excess [6]	Bliss excess [7]	Bliss excess [8]	Bliss excess [9]	Bliss excess (NCI-H2591 (Mesothelioma))	Bliss excess (NY (Osteosarcoma))	Bliss excess [10]	Bliss excess [11]	Bliss excess [12]	Bliss excess (U-2-OS (Osteosarcoma))	Bliss excess [13]
C[C@@H](c1ccc2nccn2c1)n1nnc2ncc(-c3cnn(C)c3)nc21 [Savolitinib] + CC1(C)CCC(CN2CCN(c3ccc(C(=O)NS(=O)(=O)c4ccc(NCC5CCOCC5)c([N+](=O)[O-])c4)c(Oc4cnc5[nH]ccc5c4)c3)CC2)=C(c2ccc(Cl)cc2)C1 [Venetoclax] (first compound max 1 µM, 7x7, partner max 1 µM)	-0.025	-0.023	-0.0378	-0.055	-0.0615	0.0258	-0.0344	-0.0189	-0.0642	-0.0638	-0.0546	-0.0697	-0.108	-0.0802	-0.0147	-0.0549	-0.0724	-0.1	-0.0397	-0.0325
C[C@@H](c1ccc2nccn2c1)n1nnc2ncc(-c3cnn(C)c3)nc21 [Savolitinib] + Cc1c2c(nn1C)CSCc1cc(n(C)n1)CSc1cc(c3ccccc3c1)OCCCc1c(C(=O)O)n(C)c3c-2c(Cl)ccc13 [AZD5991] (first compound max 1 µM, 7x7, partner max 1 µM)	-0.0303	-0.0499	-0.0279	-0.0584	-0.0402	0.0229	-0.0118	-0.0525	-0.0407	-0.0434	-0.0413	-0.0209	-0.0107	-0.0549	-0.0288	-0.0648	-0.0102	-0.0947	-0.0271	-0.0422
Cn1cnc2c(F)c(Nc3ccc(Br)cc3Cl)c(C(=O)NOCCO)cc21 [Selumetinib] + C=CCn1c(=O)c2cnc(Nc3ccc(N4CCN(C)CC4)cc3)nc2n1-c1cccc(C(C)(C)O)n1 [AZD1775] (first compound max 10 µM, partner max 1 µM)	-0.0543	-0.0575	-0.0741	-0.0342	-0.0167	-0.0058	0.0052	-0.0005	-0.133	-0.0432	-0.0165	0.0258	-0.0682	-0.0318	-0.071	-0.106	-0.0599	-0.0169	-0.0328	-0.063
Cn1cnc2c(F)c(Nc3ccc(Br)cc3Cl)c(C(=O)NOCCO)cc21 [Selumetinib] + CC(C)n1c(=O)n(C)c2cnc3cc(F)c(-c4ccc(OCCCN5CCCCC5)nc4)cc3c21 [AZD1390] (first compound max 10 µM, 7x7, partner max 0.3 µM)	-0.018	0.0678	-0.0534	-0.053	0.0157	0.0038	-0.0344	-0.0277	-0.0425	-0.0477	-0.0468	0.0074	-0.0386	-0.0585	-0.0149	-0.049	-0.0364	-0.0387	-0.0464	-0.0387
Cn1cnc2c(F)c(Nc3ccc(Br)cc3Cl)c(C(=O)NOCCO)cc21 [Selumetinib] + CCN(CCO)CCCOc1ccc2c(Nc3cc(CC(=O)Nc4cccc(F)c4)[nH]n3)ncnc2c1 [AZD2811] (first compound max 10 µM, 7x7, partner max 1 µM)	-0.0181	0.165	0.0248	-0.0349	0.0101	-0.094	-0.0013	-0.0098	0.013	0.203	-0.0214	-0.0775	-0.0196	-0.0459	-0.0102	-0.0245	-0.0472	0.0055	-0.0111	-0.0336
Cn1cnc2c(F)c(Nc3ccc(Br)cc3Cl)c(C(=O)NOCCO)cc21 [Selumetinib] + C[C@@H]1COCCN1C2=NC(=NC(=C2)C3(CC3)[S@](=N)(=O)C)C4=C5C=CNC5=NC=C4 [AZD6738] (first compound max 10 µM, 7x7, partner max 10 µM)	-0.0051	0.061	-0.0173	-0.0163	0.0233	0.0198	0.0267	-0.0327	-0.0473	0.0244	0.042	-0.0025	-0.0666	0.0292	0.0613	0.0158	-0.0154	0.0773	-0.0443	-0.0602
CC1(C)CCC(CN2CCN(c3ccc(C(=O)NS(=O)(=O)c4ccc(NCC5CCOCC5)c([N+](=O)[O-])c4)c(Oc4cnc5[nH]ccc5c4)c3)CC2)=C(c2ccc(Cl)cc2)C1 [Venetoclax] + C1CN(CCC1(C(=O)N[C@@H](CCO)C2=CC=C(C=C2)Cl)N)C3=NC=NC4=C3C=CN4 [Capivasertib] (first compound max 1 µM, 7x7, partner max 3 µM)	0.0442	-0.0468	-0.059	-0.0653	-0.039	-0.0202	-0.0295	0.0021	0.0344	-0.0613	-0.0389	-0.041	-0.0534	-0.0453	0.0029	-0.0649	-0.103	-0.0391	-0.0414	-0.026
CC1(C)CCC(CN2CCN(c3ccc(C(=O)NS(=O)(=O)c4ccc(NCC5CCOCC5)c([N+](=O)[O-])c4)c(Oc4cnc5[nH]ccc5c4)c3)CC2)=C(c2ccc(Cl)cc2)C1 [Venetoclax] + C=CCn1c(=O)c2cnc(Nc3ccc(N4CCN(C)CC4)cc3)nc2n1-c1cccc(C(C)(C)O)n1 [AZD1775] (first compound max 1 µM, partner max 1 µM)	-0.0307	-0.0298	-0.0366	0.0375	-0.066	0.0951	0.0519	-0.0366	0.127	-0.0281	-0.0489	-0.009	0.0167	-0.0497	0.0137	-0.0369	0.0252	-0.0696	-0.018	-0.0013
CC1(C)CCC(CN2CCN(c3ccc(C(=O)NS(=O)(=O)c4ccc(NCC5CCOCC5)c([N+](=O)[O-])c4)c(Oc4cnc5[nH]ccc5c4)c3)CC2)=C(c2ccc(Cl)cc2)C1 [Venetoclax] + CCN(CCO)CCCOc1ccc2c(Nc3cc(CC(=O)Nc4cccc(F)c4)[nH]n3)ncnc2c1 [AZD2811] (first compound max 1 µM, 7x7, partner max 1 µM)	0.0065	-0.0238	-0.0668	-0.0052	-0.0122	0.0068	0.024	0.0579	0.0894	0.0485	-0.0011	-0.0024	0.0609	-0.009	-0.0304	-0.0199	-0.0834	-0.0276	-0.0188	0.0436
CC1(C)CCC(CN2CCN(c3ccc(C(=O)NS(=O)(=O)c4ccc(NCC5CCOCC5)c([N+](=O)[O-])c4)c(Oc4cnc5[nH]ccc5c4)c3)CC2)=C(c2ccc(Cl)cc2)C1 [Venetoclax] + CN(C)CCCOc1ccc(-c2ccc3ncc4c(c3c2)n(C2CCOCC2)c(=O)n4C)cn1 [AZD0156] (first compound max 1 µM, 7x7, partner max 1 µM)	-0.0171	-0.0485	-0.0586	-0.0046	-0.0054	0.0243	-0.0293	0.0044	-0.035	0.0102	-0.038	0.0054	-0.0183	-0.0202	-0.0939	-0.0527	-0.13	-0.0351	-0.0107	0.032
CC1(C)CCC(CN2CCN(c3ccc(C(=O)NS(=O)(=O)c4ccc(NCC5CCOCC5)c([N+](=O)[O-])c4)c(Oc4cnc5[nH]ccc5c4)c3)CC2)=C(c2ccc(Cl)cc2)C1 [Venetoclax] + COc1cc(Nc2ncc3c(n2)-c2ccc(Cl)cc2C(c2c(F)cccc2OC)=NC3)ccc1C(=O)O [Alisertib] (first compound max 1 µM, 7x7, partner max 10 µM)	0.0038	-0.156	-0.0696	-0.0341	0.0196	-0.0281	-0.0524	0.0356	0.374	0.0504	-0.0242	0.0694	0.171	-0.066	-0.0009	-0.0126	-0.113	-0.0069	0.0055	0.0574
CC1(C)CCC(CN2CCN(c3ccc(C(=O)NS(=O)(=O)c4ccc(NCC5CCOCC5)c([N+](=O)[O-])c4)c(Oc4cnc5[nH]ccc5c4)c3)CC2)=C(c2ccc(Cl)cc2)C1 [Venetoclax] + C[C@@H]1COCCN1C2=NC(=NC(=C2)C3(CC3)[S@](=N)(=O)C)C4=C5C=CNC5=NC=C4 [AZD6738] (first compound max 1 µM, 7x7, partner max 10 µM)	-0.0603	0.008	-0.0465	-0.0068	-0.0197	-0.0132	-0.0455	0.0328	0.0577	-0.0148	-0.0025	0.007	0.0202	-0.0595	-0.0597	-0.0553	-0.0387	-0.0293	-0.0469	-0.0174
CC1(C)CCC(CN2CCN(c3ccc(C(=O)NS(=O)(=O)c4ccc(NCC5CCOCC5)c([N+](=O)[O-])c4)c(Oc4cnc5[nH]ccc5c4)c3)CC2)=C(c2ccc(Cl)cc2)C1 [Venetoclax] + C[C@@H](Nc1cc(F)cc(F)c1)c1cc(C(=O)N(C)C)cc2c(=O)cc(N3CCOCC3)oc12 [AZD8186] (first compound max 1 µM, 7x7, partner max 3 µM)	0.0025	-0.0047	-0.0073	-0.04	-0.0287	0.0539	-0.0019	-0.0245	0.0888	-0.0218	-0.0304	0.0121	0.0074	-0.0378	0.0226	-0.0149	-0.0467	-0.0251	-0.0269	-0.0242
CC1(C)CCC(CN2CCN(c3ccc(C(=O)NS(=O)(=O)c4ccc(NCC5CCOCC5)c([N+](=O)[O-])c4)c(Oc4cnc5[nH]ccc5c4)c3)CC2)=C(c2ccc(Cl)cc2)C1 [Venetoclax] + Cc1cc2ncnn2cc1Nc1ncc2c(n1)n(C1CCOCC1)c(=O)n2C [AZD7648] (first compound max 1 µM, 7x7, partner max 10 µM)	-0.0139	0.0185	-0.0445	-0.05	-0.0114	0.0065	-0.0387	-0.0034	-0.0081	-0.0103	-0.0151	0.0081	-0.0491	-0.0384	0.0011	-0.0351	-0.0161	-0.0014	-0.0178	-0.0248
